Where two headings read alike, the source gives them in different places.

What is called inhibition is the relative decrease from the control value, in per cent.

Assay [1] relates to MCF-7 cells. In words: SRB assay, breast cancer cell line MCF-7. The format is cell-based. The procedure: To determine the effect of the combination treatment of omeprazole (KN510), a carnitine acylcarnitine carrier inhibitor, and thioridazine (KN714), a peroxisome beta-oxidation inhibitor, on cancer cell growth, the extent of cancer cell death was determined using the SRB assay (Sulforhodamine B colorimetric assay), and the degree of cancer cell growth was analyzed relative to the control (100%). As a comparison, omeprazole (KN510) and trimetazidine (KN713), a 3-ketoacyl CoA thiolase inhibitor, were co-treated.
First, a pancreatic cancer cell line, MIA PaCa-2, was prepared, and cells (100 μl) were inoculated into 96-well cell culture plates at plating densities ranging from 5,000 to 20,000 cells/well, depending on the doubling time of each cell line. After cell inoculation, 96-well cell culture plates were incubated for 24 hours before the addition of experimental drugs. MIA PaCa2 cells were treated with omeprazole (KN510) at concentrations of 10^−8 M, 10^−7 M, 10^−6 M, 10^−5 M, 10^−4 M, and 10^−3 M, thioridazine (KN714) at concentrations of 10^−10 M, 10^−9 M, 10^−8M, 10^−7 M, 10^−6 M, and 10^−5 M, and trimetazidine (KN713) at concentrations of 10^−7 M, 10^−6 M, 10^−5 M, 10^−4 M, 10^−3 M, and 10^−2 M, respectively.
The cells were then incubated in a CO2 incubator for 48 hours, after which the assay was terminated by the addition of cold TCA. Cells were fixed in situ by gently adding 50 μl of cold 50% (w/v) TCA (final concentration: 10% TCA) and incubated at 4° C. for 60 min. The supernatant was discarded, and the plate was washed five times with distilled water and air dried. Sulforhodamine B (SRB) solution (100 μl) of 0.4% (w/v) in 1% acetic acid was added to each well, and the plate was left at room temperature for 10 min. After staining, unbound dye was removed by washing five times with 1% acetic acid, and the plate was air-dried. The bound dye was then solubilized with 10 mM trizma base, and the absorbance was recorded at 515 nm using an automated plate reader.
Based on Table 1 above and GI50 values, omeprazole (KN510) and/or thioridazine (KN714) concentrations were added to each well such that the concentrations were as shown in the following groups, and then cancer cell death was measured in the same manner as in Examples 1-1 above. • 1) Control, • 2) Thioridazine (KN714) 5 μM alone treatment group, • 3) Thioridazine (KN714) 10 μM alone treatment group, • 4) Omeprazole (KN510) 200 μM alone treatment group, • 5) Omeprazole (KN510) 200 μM+thioridazine (KN714) 5 μM combination treatment group, • 6) Omeprazole (KN510) 200 μM+thioridazine (KN714) 10 μM combination treatment group.
When the anticancer activity of two compounds in combination is greater than the simple sum of the anticancer activity of the individual compounds (expected activity), this is called synergistic. The predicted synergistic activity of a combination of the present invention can be calculated using the Colby Equation in Equation 1 (S.R. Colby, Weeds, 1967, pp. 15, 20-22): […]
In the present invention, the actual measure of anti-cancer activity of the combination treatment was the inhibition rate of cancer cell growth (%), and the predicted value (E) of the combination treatment was measured by substituting it into the above Colby Equation. If the actual value is greater than the predicted value, it can be judged that there is a synergistic effect, and in this invention, the predicted value calculated by the Colby Equation and the actual value were compared to further verify the synergistic effect of the combination.
Experiments were performed using the breast cancer cell lines MCF-7 cells (1.2×10^4 cells/well) and MDA-MB-231 cells (8.0×10^3 cells/well) in the same manner as in Examples 1-2 and 1-3 above.
On the technique in general: The SRB assay estimates cell density from bound dye.

Assay [2] has as its system MIA PaCa-2. As to the kind of experiment: SRB assay, cancer cell growth, pancreatic cancer cell line MIA PaCa-2. The note with it: for GI50: 48 hours, read-out: GI50 (Half maximal growth inhibition concentration). The format is cell-based. The procedure:
As a comparison, omeprazole (KN510) and trimetazidine (KN713), a 3-ketoacyl CoA thiolase inhibitor, were co-treated. […] After cell inoculation, 96-well cell culture plates were incubated for 24 hours before the addition of experimental drugs. […] The cells were then incubated in a CO2 incubator for 48 hours, after which the assay was terminated by the addition of cold TCA. Cells were fixed in situ by gently adding 50 μl of cold 50% (w/v) TCA (final concentration: 10% TCA) and incubated at 4° C. for 60 min. The supernatant was discarded, and the plate was washed five times with distilled water and air dried. Sulforhodamine B (SRB) solution (100 μl) of 0.4% (w/v) in 1% acetic acid was added to each well, and the plate was left at room temperature for 10 min. After staining, unbound dye was removed by washing five times with 1% acetic acid, and the plate was air-dried. The bound dye was then solubilized with 10 mM trizma base, and the absorbance was recorded at 515 nm using an automated plate reader. […] The predicted synergistic activity of a combination of the present invention can be calculated using the Colby Equation in Equation 1 (S.R. Colby, Weeds, 1967, pp. 15, 20-22): α and β are the measured anti-cancer activity of each compound alone, and E is the predicted anti-cancer activity of a mixture of α and β as a prediction. In the present invention, the actual measure of anti-cancer activity of the combination treatment was the inhibition rate of cancer cell growth (%), and the predicted value (E) of the combination treatment was measured by substituting it into the above Colby Equation.

[3] abbreviates: MIA PaCa-2, Conc. 10^−5M, Table 1.
[4] abbreviates: MIA PaCa-2, Conc. 10^−6M, Table 1.
Setting [5] is: MIA PaCa-2, Conc. 10^−7M, Table 1.
The mark [6] stands for this setting: MIA PaCa-2, Conc. 10^−8M, Table 1.

Regarding `CSc1ccc2c(c1)N(CCC1CCCCN1C)c1ccccc1S2` (centres unmarked) [KN714, 10-[2-(1-methyl-2-piperidyl)ethyl]-2-(methylthio)phenothiazine], the inhibition at 5 µM amounted to 1.49% in assay [1] (Homo sapiens, MCF7, KN714 5 μM, read-out: Inhibition rate of cancer cell growth (%) (Actual value)); 23.4% in assay [2] (Homo sapiens, MIA PaCa-2, MIA PaCa-2 (Example 11), KN714 5 μM, read-out: Inhibition rate of cancer cell growth (%) (Actual value)); 31.4% in assay [2] (Homo sapiens, MIA PaCa-2, MIA PaCa-2, Example 1-3, Table 4, KN714 5 μM, read-out: Inhibition rate of cancer cell growth (%) (Actual value)). For the same compound, the inhibition at 10 µM in assay [1] (Homo sapiens, MCF7, KN714 10 μM, read-out: Inhibition rate of cancer cell growth (%) (Actual value)) was found to be 60.3%; in assay [2] (Homo sapiens, MIA PaCa-2, MIA PaCa-2 (Example 11), KN714 10 μM, read-out: Inhibition rate of cancer cell growth (%) (Actual value)), 106%; in assay [2] (Homo sapiens, MIA PaCa-2, MIA PaCa-2, Example 1-3, Table 4, KN714 10 μM, read-out: Inhibition rate of cancer cell growth (%) (Actual value)), 105%. Besides, the “Cancer cell growth rate Average (%)” value in assay [1] (KN714 5 μM) is given as 98.51%; in assay [1] (KN714 10 μM) it was 39.69%; in assay [2] (MIA PaCa-2 (Example 11), KN714 5 μM), 76.62%; in assay [2] (MIA PaCa-2 (Example 11), KN714 10 μM), −5.93%; in assay [2] (setting [3]), −10.55%; in assay [2] (setting [4]) it was 94.73%. Moreover, the “Cancer cell growth rate Average (%)” value is 95.13% in assay [2] (setting [5]); 90.56% in assay [2] (setting [6]); 97.03% in assay [2] (MIA PaCa-2, Conc. 10^−9M, Table 1); 97.11% in assay [2] (MIA PaCa-2, Conc. 10^−10M, Table 1); 68.62% in assay [2] (MIA PaCa-2, Example 1-2, Table 2, KN714 5 μM); −5.25% in assay [2] (MIA PaCa-2, Example 1-2, Table 2, KN714 10 μM). Besides, the GI50 in assay [2] (Homo sapiens, MIA PaCa-2) is 1.9 µM.

As for `COc1ccc2[nH]c([S+]([O-])Cc3ncc(C)c(OC)c3C)nc2c1` (centres unmarked) [KN510, omeprazole], the inhibition at 100 µM was found to be 34.7% in assay [1] (Homo sapiens, MCF7, KN510 100 μM, read-out: Inhibition rate of cancer cell growth (%) (Actual value)) and 30.2% in assay [2] (Homo sapiens, MIA PaCa-2, MIA PaCa-2 (Example 11), KN510 100 μM, read-out: Inhibition rate of cancer cell growth (%) (Actual value)). Moreover, the inhibition at 200 µM was found to be 50% in assay [1] (Homo sapiens, MCF7, KN510 200 μM, read-out: Inhibition rate of cancer cell growth (%) (Actual value)); 78.2% in assay [2] (Homo sapiens, MIA PaCa-2, MIA PaCa-2 (Example 11), KN510 200 μM, read-out: Inhibition rate of cancer cell growth (%) (Actual value)); 74.1% in assay [2] (Homo sapiens, MIA PaCa-2, MIA PaCa-2, Example 1-3, Table 4, KN510 200 μM, read-out: Inhibition rate of cancer cell growth (%) (Actual value)). In addition, the “Cancer cell growth rate Average (%)” value was 65.30% in assay [1] (KN510 100 μM); 49.96% in assay [1] (KN510 200 μM); 69.78% in assay [2] (MIA PaCa-2 (Example 11), KN510 100 μM); 21.75% in assay [2] (MIA PaCa-2 (Example 11), KN510 200 μM); −17.07% in assay [2] (MIA PaCa-2, Conc. 10^−3M, Table 1); 68.78% in assay [2] (MIA PaCa-2, Conc. 10^−4M, Table 1). Besides, the “Cancer cell growth rate Average (%)” value was 94.56% in assay [2] (setting [3]); 93.66% in assay [2] (setting [4]); 97.84% in assay [2] (setting [5]); 101.17% in assay [2] (setting [6]); 25.89% in assay [2] (MIA PaCa-2, Example 1-2, Table 2, KN510 200 μM); 69.73% in assay [2] (MIA PaCa-2, comparative example, Table 3, KN510 100 μM). In assay [2] (MIA PaCa-2, comparative example, Table 3, KN510 200 μM), the “Cancer cell growth rate Average (%)” value was found to be 35.32%. The GI50 in assay [2] (Homo sapiens, MIA PaCa-2) worked out at 117 µM.

These data come from patent US20250170140A1, “PHARMACEUTICAL COMPOSITION FOR PREVENTING OR TREATING CANCER COMPRISING CARNITINE ACYLCARNITINE CARRIER INHIBITOR AND PEROXISOMAL BETA OXIDATION INHIBITOR” (priority 2021, published 2025).
